Data on 14 compounds can be found in patent publication US9850283B2, “Macrocyclic inhibitors of the PD-1/PD-L1 and CD80(B7-1)/PD-L1 protein/protein interactions” (BRISTOL-MYERS SQUIBB COMPANY, priority 2013, dated 2017).

Assay [1] concerns the target T1, LK35.2-hPD-L1 cells / PE-labeled PD-1-Ig (Homo sapiens, UniProt Q9NZQ7).
T1 construct: expressed in transfected cells; host or cells: LK35.2 mouse B cell line
The experiment in a line: LK35.2-hPD-L1 cell binding high-content screening assay. Format: cell-based. Conditions: cell binding assay, cell line not given; cluster symbol; read-out: CBA IC50 cluster. Put shortly: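 Mouse LK35.2 B cells stably over-expressing human PD-L1, cultured overnight, treated with compound plus PE-labeled human PD-1-Ig (1 nM final) in RPMI/10% FCS for 1 h at 37 °C. After washing, bound fluorescence quantified by high-content imaging.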

For another assay, the target named is T2, Human PD-L1/PD-1 (Homo sapiens, UniProt Q9NZQ7).
T2 construct: made in house; host or cells: HEK293T
Kind of assay: HTRF PD-1-Ig/PD-L1-His binding assay (human PD-L1). Conditions: cluster symbol; read-out: HTRF IC50 cluster. Put shortly: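 Soluble PD-1-Ig binding to PD-L1-His measured by HTRF in dPBS with 0.1% BSA and 0.05% Tween-20. Detection used europium cryptate anti-Ig antibody (1 nM final) and APC anti-His antibody (20 nM final) added on top of the binding reaction.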
(In general: TR-FRET usually uses a lanthanide donor and a delayed reading to cut background.)

Positions of bridges follow the written chain, without caps; N, C: chain ends. Non-standard residues stand in square brackets, D forms with d. Residues, ends and D or L forms follow the SMILES beside them. ξ: configuration not given here. Bta = N[C@@H](Cc1csc2ccccc12)C(=O)O; Hyp = O=C(O)[C@@H]1C[C@@H](O)CN1; NMeNle = CCCC[C@H](NC)C(=O)O; hSer = N[C@@H](CCO)C(=O)O; NMeA = CN[C@@H](C)C(=O)O; ξC = NC(CS)C(=O)O

T1 sequence (Q9NZQ7 19-290): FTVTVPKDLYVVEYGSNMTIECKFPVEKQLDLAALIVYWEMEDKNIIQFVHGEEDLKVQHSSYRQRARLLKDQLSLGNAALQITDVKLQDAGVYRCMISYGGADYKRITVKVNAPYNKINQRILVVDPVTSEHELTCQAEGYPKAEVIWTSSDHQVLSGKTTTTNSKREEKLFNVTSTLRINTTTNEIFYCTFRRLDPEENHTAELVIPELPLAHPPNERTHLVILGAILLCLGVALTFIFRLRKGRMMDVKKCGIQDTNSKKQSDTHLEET
T2 sequence (Q9NZQ7 with tags, fused parts or gaps): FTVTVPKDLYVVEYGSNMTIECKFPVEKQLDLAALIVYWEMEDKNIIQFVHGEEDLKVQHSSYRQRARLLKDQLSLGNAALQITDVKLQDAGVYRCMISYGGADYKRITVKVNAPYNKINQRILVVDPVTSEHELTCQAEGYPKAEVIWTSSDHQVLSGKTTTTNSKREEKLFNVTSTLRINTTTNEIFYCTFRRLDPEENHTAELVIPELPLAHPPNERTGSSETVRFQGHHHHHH

By IC50 is commonly meant the concentration that inhibits the measured activity by half. For `CCCC[C@H]1C(=O)N[C@@H](CCCNC(=N)N)C(=O)NC(C(=O)NCC(N)=O)CSCC(=O)N[C@@H](Cc2ccc(O)cc2)C(=O)N(C)[C@@H](C)C(=O)N[C@@H](CC(N)=O)C(=O)N2CCC[C@H]2C(=O)N[C@@H](Cc2cnc[nH]2)C(=O)N[C@@H](CC(C)C)C(=O)N2C[C@H](O)C[C@H]2C(=O)N[C@@H](Cc2c[nH]c3ccccc23)C(=O)N[C@@H](CO)C(=O)N[C@@H](Cc2c[nH]c3ccccc23)C(=O)N(C)[C@@H](COCC)C(=O)N1C` (stereo partly shown) [Example 9046], the 50% inhibitory concentration (IC50) was 0.158 to 4.71 nM in assay [1] and 0.385 to 6.74 nM on Human PD-L1/PD-1.

As for `CCCC[C@H]1C(=O)N(C)[C@@H](CCCC)C(=O)N[C@@H](CCCNC(=N)N)C(=O)NC(C(=O)NCC(N)=O)CSCC(=O)N[C@@H](Cc2ccc(O)cc2)C(=O)N(C)[C@@H](C)C(=O)N[C@@H](CC(N)=O)C(=O)N2CCC[C@H]2C(=O)N[C@@H](Cc2cnc[nH]2)C(=O)N[C@@H](CC(C)C)C(=O)N2CCC[C@H]2C(=O)N[C@@H](Cc2c[nH]c3ccccc23)C(=O)N[C@@H](CCO)C(=O)N[C@@H](Cc2c[nH]c3ccccc23)C(=O)N1C` (stereo partly shown) [Example 9047] ({CH2CO}-Y[NMeA]NPHLPW[hSer]W[NMeNle][NMeNle]R[ξC]G-NH2; thioether N-14), the 50% inhibitory concentration (IC50) is 0.158 to 4.71 nM in assay [1] and 0.385 to 6.74 nM at Human PD-L1/PD-1.

Take `CCCC[C@H]1C(=O)N(C)[C@@H](CCCC)C(=O)N[C@@H](CCCNC(=N)N)C(=O)NC(C(=O)NCC(N)=O)CSCC(=O)N[C@@H](Cc2ccc(O)cc2)C(=O)N(C)[C@@H](C)C(=O)N[C@@H](CC(N)=O)C(=O)N2CCC[C@H]2C(=O)N[C@@H](Cc2cnc[nH]2)C(=O)N[C@@H](CC(C)C)C(=O)N2C[C@H](O)C[C@H]2C(=O)N[C@@H](Cc2c[nH]c3ccccc23)C(=O)N[C@@H](CCO)C(=O)N[C@@H](Cc2csc3ccccc23)C(=O)N1C` (stereo partly shown) [Example 9048] ({CH2CO}-Y[NMeA]NPHL[Hyp]W[hSer][Bta][NMeNle][NMeNle]R[ξC]G-NH2; thioether N-14): the IC50 in assay [1] is 0.158 to 4.71 nM; on Human PD-L1/PD-1, 0.385 to 6.74 nM.

Regarding `CCCC[C@H]1C(=O)N(C)[C@@H](CCCC)C(=O)N[C@@H](CCCNC(=N)N)C(=O)NC(C(=O)NCC(N)=O)CSCC(=O)N[C@@H](Cc2ccc(O)cc2)C(=O)N(C)[C@@H](C)C(=O)N[C@@H](CC(N)=O)C(=O)N2CCC[C@H]2C(=O)N[C@@H](Cc2cnc[nH]2)C(=O)N[C@@H](CC(C)C)C(=O)N2C[C@H](O)C[C@H]2C(=O)N[C@@H](Cc2c[nH]c3ccccc23)C(=O)N[C@@H](CCO)C(=O)N[C@@H](Cc2c[nH]c3ccccc23)C(=O)N1C` (stereo partly shown) [Example 9049] ({CH2CO}-Y[NMeA]NPHL[Hyp]W[hSer]W[NMeNle][NMeNle]R[ξC]G-NH2; thioether N-14), the figures for the IC50 (in assay [1]; at Human PD-L1/PD-1) were 0.158 to 4.71 nM and 0.385 to 6.74 nM, respectively.

In the case of `CCCC[C@H]1C(=O)N(C)[C@@H](CCCC)C(=O)N[C@@H](CCCNC(=N)N)C(=O)NC(C(=O)NCC(N)=O)CSCC(=O)N[C@@H](Cc2ccc(O)cc2)C(=O)N(C)[C@@H](C)C(=O)N[C@@H](CC(N)=O)C(=O)N2CCC[C@H]2C(=O)N[C@@H](Cc2cnc[nH]2)C(=O)N[C@@H](CCO)C(=O)N2C[C@H](O)C[C@H]2C(=O)N[C@@H](Cc2c[nH]c3ccccc23)C(=O)N[C@@H](CO)C(=O)N[C@@H](Cc2csc3ccccc23)C(=O)N1C` (stereo partly shown) [Example 9050] ({CH2CO}-Y[NMeA]NPH[hSer][Hyp]WS[Bta][NMeNle][NMeNle]R[ξC]G-NH2; thioether N-14), the IC50 is more than 74.3 nM in assay [1] and 0.385 to 6.74 nM on Human PD-L1/PD-1.

In the case of `CCCC[C@H]1C(=O)N(C)[C@@H](CCCC)C(=O)N[C@@H](CCCNC(=N)N)C(=O)NC(C(=O)NCC(N)=O)CSCC(=O)N[C@@H](Cc2ccc(O)cc2)C(=O)N(C)[C@@H](C)C(=O)N[C@@H](CC(N)=O)C(=O)N2CCC[C@H]2C(=O)N[C@@H](Cc2cnc[nH]2)C(=O)N[C@@H](CCO)C(=O)N2C[C@H](O)C[C@H]2C(=O)N[C@@H](Cc2c[nH]c3ccccc23)C(=O)N[C@@H](CO)C(=O)N[C@@H](Cc2c[nH]c3ccccc23)C(=O)N1C` (stereo partly shown) [Example 9051] ({CH2CO}-Y[NMeA]NPH[hSer][Hyp]WSW[NMeNle][NMeNle]R[ξC]G-NH2; thioether N-14), the IC50 in assay [1] lay in the range of 0.158 to 4.71 nM; at Human PD-L1/PD-1, 6.76 to 30.3 nM.

Turning to `CCCC[C@H]1C(=O)N(C)[C@@H](CCCC)C(=O)N[C@@H](CCCNC(=N)N)C(=O)NC(C(=O)NCC(N)=O)CSCC(=O)N[C@@H](Cc2ccc(O)cc2)C(=O)N(C)[C@@H](C)C(=O)N[C@@H](CC(N)=O)C(=O)N2CCC[C@H]2C(=O)N[C@@H](Cc2cnc[nH]2)C(=O)N[C@@H](CC(C)C)C(=O)N2CCC[C@H]2C(=O)N[C@@H](Cc2c[nH]c3ccccc23)C(=O)N[C@@H](CCO)C(=O)N[C@@H](Cc2csc3ccccc23)C(=O)N1C` (stereo partly shown) [Example 9052] ({CH2CO}-Y[NMeA]NPHLPW[hSer][Bta][NMeNle][NMeNle]R[ξC]G-NH2; thioether N-14), the values for the IC50 (in assay [1]; on Human PD-L1/PD-1) were 0.158 to 4.71 nM and 0.385 to 6.74 nM, respectively.

With `CCCC[C@H]1C(=O)N(C)[C@@H](C)C(=O)N[C@@H](CCCNC(=N)N)C(=O)NC(C(=O)NCC(N)=O)CSCC(=O)N[C@@H](Cc2ccc(O)cc2)C(=O)N(C)[C@@H](C)C(=O)N[C@@H](CC(N)=O)C(=O)N2CCC[C@H]2C(=O)N[C@@H](Cc2cnc[nH]2)C(=O)N[C@@H](CC(C)C)C(=O)N2CCC[C@H]2C(=O)N[C@@H](Cc2c[nH]c3ccccc23)C(=O)N[C@@H](CO)C(=O)N[C@@H](Cc2csc3ccccc23)C(=O)N1C` (stereo partly shown) [Example 9053] ({CH2CO}-Y[NMeA]NPHLPWS[Bta][NMeNle][NMeA]R[ξC]G-NH2; thioether N-14), the IC50 in assay [1] is 4.78 to 72.9 nM; on Human PD-L1/PD-1, 6.76 to 30.3 nM.

For the compound `CCCC[C@H]1C(=O)N(C)[C@@H](C)C(=O)N[C@@H](CCCNC(=N)N)C(=O)NC(C(=O)NCC(N)=O)CSCC(=O)N[C@@H](Cc2ccc(O)cc2)C(=O)N(C)[C@@H](C)C(=O)N[C@@H](CC(N)=O)C(=O)N2CCC[C@H]2C(=O)N[C@@H](Cc2cnc[nH]2)C(=O)N[C@@H](CC(C)C)C(=O)N2CCC[C@H]2C(=O)N[C@@H](Cc2c[nH]c3ccccc23)C(=O)N[C@@H](CO)C(=O)N[C@@H](Cc2c[nH]c3ccccc23)C(=O)N1C` (stereo partly shown) [Example 9054] ({CH2CO}-Y[NMeA]NPHLPWSW[NMeNle][NMeA]R[ξC]G-NH2; thioether N-14), the 50% inhibitory concentration (IC50) in assay [1] fell in the range of 4.78 to 72.9 nM; at Human PD-L1/PD-1 it was 0.385 to 6.74 nM.

Regarding `CCCC[C@H]1C(=O)N(C)[C@@H](C)C(=O)N[C@@H](CCCNC(=N)N)C(=O)NC(C(=O)NCC(N)=O)CSCC(=O)N[C@@H](Cc2ccc(O)cc2)C(=O)N(C)[C@@H](C)C(=O)N[C@@H](CC(N)=O)C(=O)N2CCC[C@H]2C(=O)N[C@@H](Cc2cnc[nH]2)C(=O)N[C@@H](CC(C)C)C(=O)N2C[C@H](O)C[C@H]2C(=O)N[C@@H](Cc2c[nH]c3ccccc23)C(=O)N[C@@H](CO)C(=O)N[C@@H](Cc2c[nH]c3ccccc23)C(=O)N1C` (stereo partly shown) [Example 9055], the IC50 was in the range of 0.158 to 4.71 nM in assay [1] and 0.385 to 6.74 nM on Human PD-L1/PD-1.

As for `CCCC[C@H]1C(=O)N[C@@H](CCCNC(=N)N)C(=O)NC(C(=O)NCC(N)=O)CSCC(=O)N[C@@H](Cc2ccc(O)cc2)C(=O)N(C)[C@@H](C)C(=O)N[C@@H](CC(N)=O)C(=O)N2CCC[C@H]2C(=O)N[C@@H](Cc2cnc[nH]2)C(=O)N[C@@H](CC(C)C)C(=O)N2C[C@H](O)C[C@H]2C(=O)N[C@@H](Cc2c[nH]c3ccccc23)C(=O)N[C@@H](CO)C(=O)N[C@@H](Cc2csc3ccccc23)C(=O)N(C)[C@@H](C)C(=O)N1C` (stereo partly shown) [Example 9056] ({CH2CO}-Y[NMeA]NPHL[Hyp]WS[Bta][NMeA][NMeNle]R[ξC]G-NH2; thioether N-14), the 50% inhibitory concentration (IC50) lay within 0.158 to 4.71 nM in assay [1] and 0.385 to 6.74 nM on Human PD-L1/PD-1.

As for `CCCC[C@H]1C(=O)N(C)[C@@H](C)C(=O)N[C@@H](CCCNC(=N)N)C(=O)NC(C(=O)NCC(N)=O)CSCC(=O)N[C@@H](Cc2ccc(O)cc2)C(=O)N(C)[C@@H](C)C(=O)N[C@@H](CC(N)=O)C(=O)N2CCC[C@H]2C(=O)N[C@@H](Cc2cnc[nH]2)C(=O)N[C@@H](CC(C)C)C(=O)N2C[C@H](O)C[C@H]2C(=O)N[C@@H](Cc2c[nH]c3ccccc23)C(=O)N[C@@H](CO)C(=O)N[C@@H](Cc2csc3ccccc23)C(=O)N1C` (stereo partly shown) [Example 9058] ({CH2CO}-Y[NMeA]NPHL[Hyp]WS[Bta][NMeNle][NMeA]R[ξC]G-NH2; thioether N-14), the IC50 in assay [1] is 0.158 to 4.71 nM; at Human PD-L1/PD-1 it was 0.385 to 6.74 nM.

As for `CCCC[C@H]1C(=O)N(C)[C@@H](CCCC)C(=O)N[C@@H](CCCNC(=N)N)C(=O)NC(C(=O)NCC(N)=O)CSCC(=O)N[C@@H](Cc2ccc(O)cc2)C(=O)N(C)[C@@H](C)C(=O)N[C@@H](CC(N)=O)C(=O)N2CCC[C@H]2C(=O)N[C@@H](CC(N)=O)C(=O)N[C@@H](CC(C)C)C(=O)N2CCC[C@H]2C(=O)N[C@@H](Cc2c[nH]c3ccccc23)C(=O)N[C@@H](CO)C(=O)N[C@@H](Cc2c[nH]c3ccccc23)C(=O)N1C` (stereo partly shown) [Example 9059] ({CH2CO}-Y[NMeA]NPNLPWSW[NMeNle][NMeNle]R[ξC]G-NH2; thioether N-14), the results for the IC50 (in assay [1]; at Human PD-L1/PD-1) were 4.78 to 72.9 nM and 6.76 to 30.3 nM, respectively.

Turning to `CCCC[C@H]1C(=O)N(C)[C@@H](CCCC)C(=O)N[C@@H](CCCNC(=N)N)C(=O)NC(C(=O)NCC(N)=O)CSCC(=O)N[C@@H](Cc2ccc(O)cc2)C(=O)N(C)[C@@H](C)C(=O)N[C@@H](CC(N)=O)C(=O)N2CCC[C@H]2C(=O)N[C@@H](CC(N)=O)C(=O)N[C@@H](CC(C)C)C(=O)N2CCC[C@H]2C(=O)N[C@@H](Cc2c[nH]c3ccccc23)C(=O)N[C@@H](CO)C(=O)N[C@@H](Cc2csc3ccccc23)C(=O)N1C` (stereo partly shown) [Example 9060] ({CH2CO}-Y[NMeA]NPNLPWS[Bta][NMeNle][NMeNle]R[ξC]G-NH2; thioether N-14), the figures for the IC50 (in assay [1]; at Human PD-L1/PD-1) were 0.158 to 4.71 nM and 0.385 to 6.74 nM, respectively.
